Measured values taken from publication PMC11855866 (International Journal of Molecular Sciences, 2025).
In brackets after ≈: the same amount, converted by molar mass. Where two headings read alike, the source gives them in different places.

Key:
[1] = system: MCF-7 cells; details: cited from earlier work
[2] = system: HMEC-1 cells; test: MTT cytotoxicity / synergy assay, 72 h, HMEC-1; details: Homo sapiens, HMEC-1, 72 h, read-out: IC50 Value in Specific Cell Line, HMEC-1
Description: (§3) The synergistic effects of drug combinations were studied in various cancer cell lines, including MCF-7 (human breast cancer), A549 (human lung cancer), U-87 MG (human malignant glioma), HepG2 (human liver cancer), and HUH7 (human liver cancer). HMEC-1, an immortalized human microvascular endothelial cell line, was used as a model for normal cells. All cell lines were purchased from ATCC (Rockville, MD, USA).
(§4) The cancer cell lines were cultured in Dulbecco’s Modified Eagle’s Medium (DMEM; Sigma-Aldrich) supplemented with 10% FBS and 1% penicillin/streptomycin mixture (10,000 U/mL penicillin and 10 mg/mL streptomycin; Sigma-Aldrich) at 37 °C in a humidified atmosphere with 5% CO2.
(§5) For the MTT assay, exponentially growing cells were seeded into 96-well plates at a density of 5 × 10³ cells per well. After 24 h of incubation, the medium was replaced with 100 µL of fresh medium containing the tested compounds. After 72 h of treatment, cell viability was assessed using the MTT assay as described earlier. […] IC50 values were calculated using GraphPad Prism 9 software (GraphPad Software).

[3] = Hemolysis (Drabkin's method); assay type: cell-based; details: human, washed erythrocyte (RBC) suspension, 40% hematocrit, pH 7.4, single drug, RT, dark, CTRL− 11.6%
Description: Blood samples were collected from healthy human volunteers into Vacutainer tubes containing 3% sodium citrate (BD Biosciences, Warsaw, Poland). Whole blood was centrifuged at 1500 rpm (RCF = 214 g) for 10 min in a CompactStar CS4 centrifuge (VWR) at RT to separate erythrocytes, which were washed twice with PBS (pH 7.4) and centrifuged at 1500 rpm for 5 min at RT after each wash. Hematocrit was measured to adjust the final RBC concentration in PBS (pH 7.4) to 40%. The drugs were then dissolved in the RBC suspension at the final concentrations outlined in Figure 8. RBCs incubated in dH2O were used as a positive control (100% hemolysis), while RBCs in PBS were used as the negative control. A blank sample of PBS without RBCs or drugs provided a baseline for absorbance measurements. Experimental samples, along with positive, negative, and vehicle (0.5% DMSO) controls, were incubated for 4 h at RT in the dark. After incubation, the samples were centrifuged at 1500 rpm for 5 min at RT, and the supernatant was collected to measure hemoglobin release using Drabkin’s method. Absorbance was measured at 540 nm with a Jenway 6305 UV/Vis spectrophotometer (Bibby Scientific, Staffordshire, UK). This study was conducted in triplicate. The percentage of hemolysis was calculated by comparing the absorbance at 540 nm (OD540) of the test sample with that of the positive control using the following formula:(2) % Hemolysis=OD540Test−OD540(Blank)/OD540Total Lysis−OD540(Blank)×100%

[4] = system: multiple cell lines; design: method as in Alkhalil et al. and others [10,11,16,26]; details: range reported; ref Alkhalil et al. and others [10,11,16,26]; read-out: cytotoxicity (IC50 range over cell lines), literature; cited from earlier work
[5] = cited from earlier work
[6] = system: MC38 melanoma model; design: method as in PMID 36033393; details: GLIM 5 mg/kg every 2 days, i.p.; cited from earlier work
[7] = system: MC38 model; design: method as in PMID 36033393; details: GLIM 5 mg/kg every 2 days, i.p.; cited from earlier work
[8] = cited from earlier work; remark: listed apart in the source
[9] = system: MCF-7 cells; test: MTT cytotoxicity / synergy assay, 72 h, MCF-7; assay type: cell-based, human; details: 72 h
Description: (§1) Stock solutions of the tested compounds were first prepared in DMSO at 200-fold the intended final concentration. […] The cells were treated for 72 h under the same conditions.
(§2) Following treatment, 25 μL of MTT solution was added to each well, and the plates were incubated for 2 h at 37 °C. […] IC₅₀ values, indicating the concentration required to reduce cell viability by 50% compared to untreated controls (set as 100% viability), were calculated using GraphPad Prism 9 software (GraphPad Software, San Diego, CA, USA). All data from this preliminary cytotoxic assay were analyzed by ANOVA followed by Tukey’s post hoc test for multiple comparisons, with significance set at p < 0.05. A similar statistical approach was used for the rest of the experimental work presented in this study.

[10] = MTT cytotoxicity / synergy assay, 72 h, MCF-7; assay type: cell-based, human; details: human, MCF-7 cells
Description: as §1, §2

[11] = system: 4T1 breast cancer and B16F10 melanoma xenografts; details: 4T1, B16F10 xenografts, MMTV-PyMT; cited from earlier work
[12] = system: HSA; design: method as in Figure S2 [39–71]; details: ref Figure S2 [39–71]; cited from earlier work
[13] = Analysis of drug solubility (Cobs by HPLC); assay type: physicochemical
Description: The drug content in the samples was determined using a previously described HPLC method. The analysis was performed on an Ultimate 3000 HPLC system (Dionex Co., Germering, Germany), equipped with a UV–Vis detector and a TSKgel ODS-100V column (particle size: 5 µm; dimensions: 4.6 mm i.d. × 15 cm; Tosoh Co., Tokyo, Japan). The mobile phase consisted of MeCN and 20 mM KH2PO4 buffer (pH 3.0) in an appropriate ratio. The flow rate was maintained at 1.0 mL/min, with the column temperature set to 30 °C. All compounds were detected at 228 nm.
Some samples included 0.05% (v/v) Tween-80. For experiments involving BSA, a separate solution was prepared by dissolving 4.5 mg/mL of BSA (cat. #422381B, VWR) in the same PBS (pH 7.4), with or without 0.05% (v/v) Tween-80. All samples were incubated at 37 °C with shaking for 24 h. After incubation, the samples were either centrifuged at 13,500 rpm (RCF = 12,225 g) for 15 min using a Micro Star 12 microcentrifuge (VWR), and 150 µL of the supernatant was collected for HPLC analysis, or filtered using 0.22 µm PVDF syringe filters (13 mm i.d., cat. #514-1251, VWR) or AcroPrep™ Advance 96-well filter plates (Pall Corporation, Dreieich, Germany) with various molecular weight cut-offs.

[14] = system: A549 cells; test: Doxorubicin accumulation assay, A549; assay type: cell-based, human; details: 50 µM DOXO and 1.56 µM GLIM, 3 h
Description: Cells were seeded at a density of 2 × 10^4 cells per well in black 96-well plates as described in Section 3.6.

[15] = system: HuH7 cells; test: MTT cytotoxicity / synergy assay, 72 h, HuH7; details: Homo sapiens, Huh-7, 72 h, read-out: IC50 Value in Specific Cell Line, HuH7
Description: as §3, §4, §5

CCC1=C(C)CN(C(=O)NCCc2ccc(S(=O)(=O)NC(=O)N[C@H]3CC[C@H](C)CC3)cc2)C1=O [GLIM, Glimepiride]
IC50 ([1]; calculated by the authors from the results of Faridi et al., read-out: IC50 value, MCF-7): 79.8 µM
IC50 ([1]; read-out: IC50, MCF-7): 50 µM
CC50 [2]: 136 ± 5.1 µM
hemolysis at 4 h [3]: 11.2 to 11.9%
IC50 [4]: 89.4 to 426 µM
logP [5]: 3.81
reduction of tumor mass [6]: 57%
increase in CD8+ T cell numbers [7]: < 10%
protein-bound in plasma [8]: 99.4%
decrease in cell viability caused by 0.05% Tween-80 ([9]; with vs. without 0.05% Tween-80): 24.6%
IC50 ([9]; Homo sapiens, MCF7, 72 h, MTT, n.d. = IC50 not achieved within concentrations tested, read-out: IC50 Value in Specific Cell Line, MCF-7): 175 µM
viability at 72 h ([10]; 0.05% Tween-80, read-out: MCF-7 viability with 0.05% Tween-80): 71.2%
viability at 72 h ([10]; before addition of 0.05% Tween-80, read-out: MCF-7 viability without Tween-80): 95.9%
effect on tumor growth and metastasis [11]: no effect
nKa (global affinity constant, HSA) [12]: 910000 M⁻¹
concentration up to which Cobs matches the expected concentration ([13]; GLIM only in PBS pH 7.4, 37 °C, 24 h, centrifugation): up to 100 µM
observed concentration (Cobs) ([13]; GLIM only, 0.22 µm syringe filters, all tested samples): 8.6 to 16.6 µM
solubility kinetic at 24 h ([13]; PBS, pH 7.4, aqueous buffer, read-out: observed concentration (Cobs) above the threshold): ~5 µM (≈ 2.45 µg/mL)
increase in DOXO level compared to DOXO monotherapy [14]: 227%
IC50 [15]: 476 ± 7 µM
